Among the data in DBAASP are MIC values, retold here.

In brackets after ≈: the same amount, converted by molar mass.

Among the test systems are Bacillus subtilis 168; Escherichia coli UB1005; Acinetobacter baumannii; Escherichia coli; Staphylococcus aureus; Pseudomonas aeruginosa; Escherichia coli B.
Holding throughout (test): ≥ marks a high value that may be exact or a test limit, other limits are often not marked, values filed in µg/mL are converted to µM
The test system of assay [1] is Escherichia coli KCTC 1682.
Assay [2] concerns Pseudomonas aeruginosa KCTC 1637.
In assay [3] the test system is Staphylococcus aureus KCTC 1621.
The test system of assay [4] is Salmonella typhimurium KCTC 1926.
The subject of assay [5] is Staphylococcus epidermidis KCTC 1917.
Assay [6] deals with Bacillus subtilis KCTC 3068.
Assay [7] has as its system Escherichia coli DH5alpha.
Assay [8] has as its system Staphylococcus aureus NCTC 8325.
Assay [9] relates to Escherichia coli ATCC 25922.
Assay [10] relates to Candida albicans ATCC 90028.
In assay [11] the test system is Staphylococcus aureus ATCC 25923.
The subject of assay [12] is Staphylococcus epidermidis ATCC 12228.
The test system of assay [13] is Salmonella enterica subsp. enterica serovar Typhimurium C77-31.
For assay [14], the system named is Staphylococcus aureus ATCC 29213.

As a reminder, the MIC is the lowest concentration that inhibits growth of the organism. Read a low MIC as a more susceptible organism. Turning to `CC(C)C[C@H](NC(=O)[C@H](Cc1c[nH]c2ccccc12)NC(=O)[C@H](CCCN=C(N)N)NC(=O)[C@H](CCCCN)NC(=O)[C@H](Cc1c[nH]c2ccccc12)NC(=O)[C@H](CCCN=C(N)N)NC(=O)[C@H](CCC(N)=O)NC(=O)[C@@H](NC(=O)[C@H](Cc1c[nH]c2ccccc12)NC(=O)[C@H](CCCN=C(N)N)NC(=O)[C@H](CCCCN)NC(=O)[C@@H](N)Cc1c[nH]c2ccccc12)C(C)C)C(=O)N[C@@H](CCCN=C(N)N)C(N)=O` [WKRWVQRWKRWLR], the MIC in assay [1] was determined as 4 µM (≈ 7.93 µg/mL); in assay [2], 16 µM (≈ 31.7 µg/mL); in assay [3], 2 µM (≈ 3.97 µg/mL); in assay [4] it was 2 µM (≈ 3.97 µg/mL); in assay [5], 4 µM (≈ 7.93 µg/mL); in assay [6] it was 8 µM (≈ 15.9 µg/mL).
Take `CC(C)C[C@H](NC(=O)[C@H](CCCCN)NC(=O)[C@H](CCCCN)NC(=O)[C@H](CC(C)C)NC(=O)[C@H](CC(C)C)NC(=O)[C@H](CCCCN)NC(=O)[C@H](CCCCN)NC(=O)[C@H](CC(C)C)NC(=O)[C@H](CC(C)C)NC(=O)[C@H](CCCCN)NC(=O)[C@H](CCCCN)NC(=O)[C@H](CC(C)C)NC(=O)[C@H](CC(C)C)NC(=O)CN)C(N)=O` [GLLKKLLKKLLKKL]: the results for the MIC (in [7]; with Bacillus subtilis 168) were 6 µM (≈ 9.81 µg/mL) and 2 µM (≈ 3.27 µg/mL), respectively.
On to `CC[C@H](C)[C@H](NC(=O)CNC(=O)[C@H](CCC(N)=O)NC(=O)[C@H](Cc1ccccc1)NC(=O)[C@@H](NC(=O)[C@H](CCCCN)NC(=O)[C@H](CCCCN)NC(=O)[C@H](CC(C)C)NC(=O)[C@H](C)NC(=O)[C@H](CC(N)=O)NC(=O)[C@H](CC(C)C)NC(=O)CN)C(C)C)C(=O)N[C@@H](Cc1cnc[nH]1)C(=O)N[C@@H](CCC(=O)O)C(=O)N[C@@H](C)C(=O)N[C@H](C(=O)N[C@@H](CCCCN)C(=O)N[C@@H](CC(C)C)C(=O)N[C@H](C(=O)N[C@@H](CC(N)=O)C(=O)N[C@@H](CCCCN)C(=O)N[C@@H](Cc1cnc[nH]1)C(=O)N[C@H](C(=O)N[C@@H](CCC(N)=O)C(=O)O)C(C)C)[C@@H](C)CC)[C@@H](C)CC` [GLNALKKVFQGIHEAIKLINKHVQ], for which the MIC was not below 80 µM in assay [8] and 20 µM (≈ 54 µg/mL) in assay [9].
As for `CC[C@H](C)[C@H](NC(=O)CNC(=O)[C@H](C)NC(=O)[C@@H](NC(=O)[C@@H](NC(=O)[C@@H]1CCCN1C(=O)[C@H](CC(C)C)NC(=O)[C@@H](N)Cc1ccccc1)[C@@H](C)CC)[C@@H](C)CC)C(=O)N[C@@H](C)C(=O)N[C@@H](C)C(=O)N[C@@H](CCCCN)C(=O)N[C@H](C(=O)N[C@@H](Cc1ccccc1)C(=O)N1CCC[C@H]1C(=O)N[C@@H](CCCCN)C(=O)N[C@H](C(=O)N[C@@H](Cc1ccccc1)C(=O)N[C@H]1CSSC[C@@H](C(=O)O)NC(=O)[C@H](CCCCN)NC(=O)[C@H](CCCCN)NC(=O)[C@H](CO)NC(=O)[C@H]([C@@H](C)CC)NC(=O)[C@H](C)NC1=O)[C@@H](C)CC)C(C)C` [FLPIIAGIAAKVFPKIFCAISKKC], the MIC in [8] came to 5 µM (≈ 12.9 µg/mL); in assay [10], 7 µM (≈ 18 µg/mL); in assay [9] it was 14 µM (≈ 36.1 µg/mL).
`CC(C)C[C@H](NC(=O)[C@H](CCCN=C(N)N)NC(=O)[C@H](CCCCN)NC(=O)[C@H](CCCN=C(N)N)NC(=O)[C@@H](NC(=O)[C@H](CCCCN)NC(=O)[C@H](CCCCN)NC(=O)[C@H](CCCN=C(N)N)NC(=O)[C@H](CC(C)C)NC(=O)[C@H](CCCN=C(N)N)NC(=O)[C@@H](N)CCCN=C(N)N)[C@@H](C)O)C(=O)N[C@@H](CCCCN)C(N)=O` [RRLRKKTRKRLK]: the MIC is not below 64 µM with Escherichia coli UB1005; more than 128 µM in assay [11]; more than 128 µM in [12]; more than 128 µM in assay [9]; not below 128 µM in assay [13]; more than 128 µM in assay [14].
`CC(C)C[C@H](NC(=O)[C@@H](NC(=O)[C@H](CCCCN)NC(=O)[C@H](CO)NC(=O)[C@H](CC(C)C)NC(=O)[C@H](CC(C)C)NC(=O)[C@@H](NC(=O)[C@H](C)NC(=O)[C@H](CC(C)C)NC(=O)[C@H](Cc1ccccc1)NC(=O)[C@@H]1CCCN1C(=O)[C@H](CC(C)C)NC(=O)[C@@H](N)Cc1ccccc1)[C@@H](C)O)C(C)C)C(N)=O` [FLPFLATLLSKVL] registered an MIC in assay [8] not below 100 µM.
With `CC(C)[C@H](NC(=O)[C@H](CCCCN)NC(=O)[C@H](Cc1c[nH]c2ccccc12)NC(=O)[C@H](CCCCN)NC(=O)[C@@H](NC(=O)[C@H](CCCCN)NC(=O)[C@H](Cc1c[nH]c2ccccc12)NC(=O)[C@H](CCCCN)NC(=O)[C@@H](NC(=O)[C@H](CCCCN)NC(=O)[C@@H](N)Cc1c[nH]c2ccccc12)C(C)C)C(C)C)C(=O)N[C@@H](CCCCN)C(N)=O` [WKVKWKVKWKVK], the MIC with Acinetobacter baumannii was determined as 1.41 µM (≈ 2.32 µg/mL); in the assay on Escherichia coli, 1 µM (≈ 1.64 µg/mL); against Escherichia coli UB1005 it was 2 µM (≈ 3.28 µg/mL); in [11], 2 µM (≈ 3.28 µg/mL); against Staphylococcus aureus, 2 µM (≈ 3.28 µg/mL); in assay [12] it was 2 µM (≈ 3.28 µg/mL). The MIC came to 4 µM (≈ 6.57 µg/mL) against Pseudomonas aeruginosa, 2 µM (≈ 3.28 µg/mL) in assay [9], 2 µM (≈ 3.28 µg/mL) in [13] and 1 µM (≈ 1.64 µg/mL) in [14].
`CC(C)C[C@H](NC(=O)[C@H](CCCN=C(N)N)NC(=O)[C@@H](NC(=O)[C@H](CCCN=C(N)N)NC(=O)[C@@H](NC(=O)[C@H](CCCCN)NC(=O)[C@@H](NC(=O)[C@H](CCCN=C(N)N)NC(=O)[C@H](CC(C)C)NC(=O)[C@H](CCCN=C(N)N)NC(=O)[C@@H](N)C(C)C)C(C)C)[C@@H](C)O)C(C)C)C(=O)N[C@@H](CCCCN)C(N)=O` [VRLRVKTRVRLK]: the MIC with Escherichia coli UB1005 turned out to be 4 µM (≈ 6.09 µg/mL); in assay [11], 64 µM (≈ 97.5 µg/mL); in assay [12], 32 µM (≈ 48.7 µg/mL); in assay [9] it was 4 µM (≈ 6.09 µg/mL); in [13], 16 µM (≈ 24.4 µg/mL); in assay [14], 16 µM (≈ 24.4 µg/mL).
As to `CC[C@H](C)[C@@H]1NC(=O)[C@@H](NC(=O)[C@H](CCCCN)NC(=O)[C@H](CC(C)C)NC(=O)CNC(=O)[C@H](CCC(N)=O)NC(=O)[C@H](CC(C)C)NC(=O)[C@H](CC(C)C)NC(=O)[C@H](CCCCN)NC(=O)CNC(=O)[C@H](C)NC(=O)[C@H](CC(C)C)NC(=O)CNC(=O)[C@H](CCCCN)NC(=O)[C@H](CC(C)C)NC(=O)[C@@H](NC(=O)[C@H](CC(=O)O)NC(=O)[C@H](CC(C)C)NC(=O)[C@H](Cc2ccccc2)NC(=O)[C@H](CC(C)C)NC(=O)CN)[C@@H](C)O)CSSC[C@@H](C(=O)N[C@@H](CCCCN)C(=O)N2CCC[C@H]2C(=O)O)NC(=O)CNC(=O)[C@H](C)NC(=O)[C@H](CCCCN)NC1=O` [GLFLDTLKGLAGKLLQGLKCIKAGCKP], the results for the MIC in assay [8], in [10] and in [9] were not below 40 µM, not below 46 µM and 2 µM (≈ 5.57 µg/mL), respectively.
As for `C[C@@H](O)[C@H](NC(=O)[C@H](CCCN=C(N)N)NC(=O)[C@H](Cc1c[nH]c2ccccc12)NC(=O)[C@H](CCCN=C(N)N)NC(=O)[C@@H](NC(=O)[C@H](CCCN=C(N)N)NC(=O)[C@H](Cc1c[nH]c2ccccc12)NC(=O)[C@H](CCCN=C(N)N)NC(=O)[C@@H](NC(=O)[C@H](CCCN=C(N)N)NC(=O)[C@@H](N)Cc1c[nH]c2ccccc12)[C@@H](C)O)[C@@H](C)O)C(=O)N[C@@H](CCCN=C(N)N)C(N)=O` [WRTRWRTRWRTR], the MIC was not below 32 µM with Acinetobacter baumannii; 2 µM (≈ 3.63 µg/mL) against Escherichia coli; 4 µM (≈ 7.26 µg/mL) in the assay with Escherichia coli UB1005; 8 µM (≈ 14.5 µg/mL) in assay [11]; 4 µM (≈ 7.26 µg/mL) in the assay on Staphylococcus aureus; 8 µM (≈ 14.5 µg/mL) in [12]. Moreover, the MIC in the assay on Pseudomonas aeruginosa was more than 64 µM; in assay [9], 4 µM (≈ 7.26 µg/mL); in [13] it was 4 µM (≈ 7.26 µg/mL); in assay [14], 4 µM (≈ 7.26 µg/mL).
Take `CC[C@H](C)[C@H](NC(=O)[C@H](CCCCN)NC(=O)CNC(=O)[C@H](CC(C)C)NC(=O)[C@@H](NC(=O)[C@H](CCCCN)NC(=O)[C@H](CCCCN)NC(=O)[C@H](Cc1c[nH]c2ccccc12)NC(=O)[C@H](CC(N)=O)NC(=O)[C@@H](N)C(C)C)[C@@H](C)CC)C(N)=O` [VNWKKILGKI]: the MIC in the assay with Escherichia coli B is 23.3 µM (≈ 27.9 µg/mL); against Staphylococcus aureus, more than 100 µM; in the assay on Pseudomonas aeruginosa it was 75 µM (≈ 89.8 µg/mL); in the assay with Bacillus subtilis 168, 4.7 µM (≈ 5.63 µg/mL).
